Paper PMC4410398, “Influence of Drug Resistance Mutations on the Activity of HIV-1 Subtypes A and B Integrases: a Comparative Study” (Acta Naturae, 2015)

Assays:
[1] = biological target: INA (consensus integrase of HIV-1 subtype A strain FSU-A), wild type (Human immunodeficiency virus type 1 group M subtype A, UniProt P24740, S1259P); format: biochemical
[2] = biological target: INA G118R (Human immunodeficiency virus type 1 group M subtype A, UniProt P24740, G1258R/S1259P); format: biochemical, HIV-1 subtype A strain FSU-A
[3] = biological target: INA E138K (Human immunodeficiency virus type 1 group M subtype A, UniProt P24740, E1278K/S1259P); format: biochemical, HIV-1 subtype A strain FSU-A
[4] = biological target: INA G118R/E138K (Human immunodeficiency virus type 1 group M subtype A, UniProt P24740, E1278K/G1258R/S1259P); format: biochemical, HIV-1 subtype A strain FSU-A
[5] = biological target: INA G140S (Human immunodeficiency virus type 1 group M subtype A, UniProt P24740, G1280S/S1259P); format: biochemical, HIV-1 subtype A strain FSU-A
[6] = biological target: INA Q148K (Human immunodeficiency virus type 1 group M subtype A, UniProt P24740, Q1288K/S1259P); format: biochemical, HIV-1 subtype A strain FSU-A
[7] = biological target: INA E138K/Q148K (Human immunodeficiency virus type 1 group M subtype A, UniProt P24740, E1278K/Q1288K/S1259P); format: biochemical, HIV-1 subtype A strain FSU-A
[8] = biological target: INA G140S/Q148K (Human immunodeficiency virus type 1 group M subtype A, UniProt P24740, G1280S/Q1288K/S1259P); format: biochemical, HIV-1 subtype A strain FSU-A
[9] = biological target: T1, INB (integrase of HIV-1 subtype B strain HXB-2), wild type (Human immunodeficiency virus type 1 group M subtype B, UniProt P04585); format: biochemical
T1 construct: The viral enzyme integrase (IN), which catalyzes the integration; His6 (N); made in house; host or cells: Escherichia coli Rosetta (DE3), pET-15b

[10] = biological target: T2, INB G118R (Human immunodeficiency virus type 1 group M subtype B, UniProt P04585, G1265R); assay: Inhibition of homologous strand transfer reaction, INB G118R; format: biochemical, HIV-1 subtype B strain HXB-2
T2 construct: The viral enzyme integrase (IN), which catalyzes the integration; His6 (N); made in house; host or cells: Escherichia coli Rosetta (DE3), pET-15b

[11] = biological target: T3, INB E138K (Human immunodeficiency virus type 1 group M subtype B, UniProt P04585, E1285K); assay: Inhibition of homologous strand transfer reaction, INB E138K; format: biochemical, HIV-1 subtype B strain HXB-2
T3 construct: The viral enzyme integrase (IN), which catalyzes the integration; His6 (N); made in house; host or cells: Escherichia coli Rosetta (DE3), pET-15b

[12] = biological target: T4, INB G118R/E138K (Human immunodeficiency virus type 1 group M subtype B, UniProt P04585, E1285K/G1265R); assay: Inhibition of homologous strand transfer reaction, INB G118R/E138K; format: biochemical, HIV-1 subtype B strain HXB-2
T4 construct: The viral enzyme integrase (IN), which catalyzes the integration; His6 (N); made in house; host or cells: Escherichia coli Rosetta (DE3), pET-15b

[13] = biological target: T5, INB G140S (Human immunodeficiency virus type 1 group M subtype B, UniProt P04585, G1287S); assay: Inhibition of homologous strand transfer reaction, INB G140S; format: biochemical, HIV-1 subtype B strain HXB-2
T5 construct: The viral enzyme integrase (IN), which catalyzes the integration; His6 (N); made in house; host or cells: Escherichia coli Rosetta (DE3), pET-15b

[14] = biological target: T6, INB Q148K (Human immunodeficiency virus type 1 group M subtype B, UniProt P04585, Q1295K); assay: Inhibition of homologous strand transfer reaction, INB Q148K; format: biochemical, HIV-1 subtype B strain HXB-2
T6 construct: The viral enzyme integrase (IN), which catalyzes the integration; His6 (N); made in house; host or cells: Escherichia coli Rosetta (DE3), pET-15b

[15] = biological target: T7, INB E138K/Q148K (Human immunodeficiency virus type 1 group M subtype B, UniProt P04585, E1285K/Q1295K); assay: Inhibition of homologous strand transfer reaction, INB E138K/Q148K; format: biochemical, HIV-1 subtype B strain HXB-2
T7 construct: The viral enzyme integrase (IN), which catalyzes the integration; His6 (N); made in house; host or cells: Escherichia coli Rosetta (DE3), pET-15b

[16] = biological target: T8, INB G140S/Q148K (Human immunodeficiency virus type 1 group M subtype B, UniProt P04585, G1287S/Q1295K); assay: Inhibition of homologous strand transfer reaction, INB G140S/Q148K; format: biochemical, HIV-1 subtype B strain HXB-2
T8 construct: The viral enzyme integrase (IN), which catalyzes the integration; His6 (N); made in house; host or cells: Escherichia coli Rosetta (DE3), pET-15b

[17] = system: INB; design: method as in PMID 23075516; details: literature value for INB; cited from earlier work
[18] = system: HIV-1 subtype CRF02_A/G isolate carrying a G118R substitution in the IN gene; design: method as in PMID 24710029; details: HIV-1 subtype CRF02_A/G isolate carrying G118R in the IN gene; cited from earlier work
[19] = system: HIV-1 subtype B (clone pNL4-3) carrying G118R; design: method as in PMID 24710029; details: cited from earlier work
[20] = homologous strand transfer, 2 h, 100 nM IN, read-out: Inhibitory activity, IC50

CN(C)S(=O)(=O)c1cc(O)c(O)c2c1CN(Cc1ccc(F)c(Cl)c1)C2=O [XZ-259]
ratio of IC50 for mutants over wt (FC) [1]: 1
IC50 [1, 20]: 0.04 ± 0.015 µM
ratio of IC50 for mutants over wt (FC) [2]: 1
IC50 [2, 20]: 0.04 ± 0.01 µM
ratio of IC50 for mutants over wt (FC) [3]: 1.25
IC50 [3, 20]: 0.05 ± 0.015 µM
ratio of IC50 for mutants over wt (FC) [4]: 0.75
IC50 [4, 20]: 0.03 ± 0.01 µM
ratio of IC50 for mutants over wt (FC) [5]: 3.8
IC50 [5, 20]: 0.15 ± 0.05 µM
ratio of IC50 for mutants over wt (FC) [6]: 8.8
IC50 [6, 20]: 0.35 ± 0.1 µM
ratio of IC50 for mutants over wt (FC) [7]: 5
IC50 [7, 20]: 0.2 ± 0.05 µM
ratio of IC50 for mutants over wt (FC) [8]: 15
IC50 [8, 20]: 0.6 ± 0.15 µM
ratio of IC50 for mutants over wt (FC) [9]: 1
IC50 [9, 20]: 0.065 ± 0.01 µM
ratio of IC50 for mutants over wt (FC) [10]: 1.2
IC50 [10, 20]: 0.08 ± 0.02 µM
ratio of IC50 for mutants over wt (FC) [11]: 1
IC50 [11, 20]: 0.07 ± 0.01 µM
ratio of IC50 for mutants over wt (FC) [12]: 1.2
IC50 [12, 20]: 0.08 ± 0.015 µM
ratio of IC50 for mutants over wt (FC) [13]: 2.3
IC50 [13, 20]: 0.15 ± 0.05 µM
ratio of IC50 for mutants over wt (FC) [14]: 9.2
IC50 [14, 20]: 0.6 ± 0.1 µM
ratio of IC50 for mutants over wt (FC) [15]: 7.7
IC50 [15, 20]: 0.5 ± 0.2 µM
ratio of IC50 for mutants over wt (FC) [16]: 13
IC50 [16, 20]: 0.85 ± 0.1 µM
IC50 [17]: 0.077 µM

C[C@@H]1CCO[C@H]2Cn3cc(C(=O)NCc4ccc(F)cc4F)c(=O)c(O)c3C(=O)N12 [DTG, dolutegravir]
FC (resistance) [18]: > 100
FC (resistance) [19]: 10
